Data on 7 molecules can be found in patent publication US20240391954A1, “MC4R AGONIST PEPTIDES” (The Regents of the University of Michigan, priority 2021, published 2024).

In one data set the target is T1, human MC3R (Homo sapiens, UniProt P41968).
T1 construct: expressed in transfected cells; host or cells: HEK-293 cells stably expressing the GScAMP22F split-luciferase cAMP sensor (parent reporter line from Promega); MC3R clone generated in-house, G418 selection
Nature of the data set: split-luciferase cAMP sensor assay, agonist mode (measurement window 1), hMC3R. The format is cell-based. The conditions noted are these: for Emax: read-out: MC3R cAMP % max activation; for MC4R selectivity vs MC3R: MC4R versus MC3R. The procedure, abridged: (§1)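 Live stable cell lines carrying receptor plus GloSensor cAMP22f split-luciferase, loaded with 4% D-luciferin in serum-free medium (~1% serum estimated during assay). Luminescence recorded during in-line peptide addition; direct agonist effect read in window 1, with 20 μM forskolin as normalization reference. EC50 from four-parameter sigmoid fit.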

A further data set addresses T2, human MC4R (Homo sapiens, UniProt P32245).
T2 construct: host or cells: HEK-293 cells stably expressing the GScAMP22F split-luciferase cAMP sensor and hMC4R, G418 selection
Nature of the data set: split-luciferase cAMP sensor assay, agonist mode (measurement window 1), hMC4R. The data set is classed as cell-based. The conditions noted are these: for Emax / EC50: agonist mode; for Emax: read-out: MC4R cAMP % max activation; for EC50: read-out: MC4R cAMP EC50. The procedure, abridged:
as §1

A further data set addresses T3, human MC1R (Homo sapiens, UniProt Q01726).
T3 construct: expressed in transfected cells; host or cells: HEK-293 cells stably expressing hMC1R and the GScAMP22F cAMP sensor
The experiment in a line: split-luciferase cAMP sensor assay, agonist mode, hMC1R. The data set is classed as cell-based. The conditions noted are these: MC4R versus MC1R. The procedure, abridged:
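HEK-293 cells stably expressing hMC1R and the GScAMP22F split-luciferase cAMP sensor, preloaded 120 min at 37° C with D-luciferin in serum-free medium. Peptide responses were taken as peak luminescence over 2-13 min minus 2-min baseline, normalized to the α-MSH ECmax. EC50 was obtained from a four-parameter variable-slope fit.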

A further data set in a line: Mouse plasma stability. The format is in vitro ADME. The conditions noted are these: 37° C.; for half-life at 1 µM: pooled mouse plasma. The method, then: FIG. 3. Results of plasma stability testing for control peptides. Compounds shown were incubated in mouse plasma at 37° C. at 1 μM concentrations. 40 ul aliquots were removed at the times indicated and the reactions stopped with the addition of 160 μL cold acetonitrile containing 200 ng/ml of peptide internal standard (IS). The incubation solution was centrifuged at 3500 rpm for 10 minutes to precipitate protein. LC/MS/MS analysis was used to determine the % peptide remaining.
Pooled mouse plasma was prepared and stored at −80° C, prior to use, 396 μL mouse plasma was incubated at 37° C. for 5 minutes in 1.5 mL microcentrifuge tubes. 4 μL of 100 μM test or control compound/peptide was added to each tube and incubated for 0.5, 15, 30, 60, 120, or 240 minutes. An aliquot of 40 μL of each reaction was stopped by the addition of 4 volume of cold acetonitrile containing 200 ng/mL of […] solution was centrifuged at 3500 rpm for 10 minutes to precipitate protein. The supernatant was used for LC/MS/MS analysis. The natural log peak area ratio (compound peak area/internal standard peak area) was plotted against time and the gradient of the line determined.

The nature of data set [1]: Plasma protein binding (Centrifree ultrafiltration). The data set is classed as in vitro ADME. The protocol: Solutions of test compound in DMSO were prepared at 1 mM, 100 uM and 10 uM, 5 ul of each solution of test compound was added to 495 uL plasma, and incubated at 25° C. for 5 min. Sample was added to a Centrifree® device, then centrifuged at 2000× g for 20 min to obtain desired filtrate volume. Initial plasma samples and ultrafiltrates were subjected to LC-MS/MS. % Free peptide=(concentration of ultrafiltrates/concentration of plasma)×100%. % Bound=100%−% Free

Setting [2] is: % maximal activation, agonist mode.
[3] abbreviates: agonist mode, hMC3R stable cell line.
Setting [4] is: 1.0 uM, read-out: Protein Binding 1.0 uM (converted).
The mark [5] stands for this setting: 10.0 uM, read-out: Protein Binding 10.0 uM (converted).

Read-outs that look alike come from different tables or passages of the source. Positions of bridges follow the written chain, without caps; N, C: chain ends. Non-standard residues stand in square brackets, D forms with d. Residues, ends and D or L forms follow the SMILES beside them. dPhe(4-Br) = N[C@H](Cc1ccc(Br)cc1)C(=O)O; dPhe(4-F) = N[C@H](Cc1ccc(F)cc1)C(=O)O; Nle = CCCC[C@H](N)C(=O)O; dAbu = CC[C@@H](N)C(=O)O

T1 sequence (P41968 whole entry): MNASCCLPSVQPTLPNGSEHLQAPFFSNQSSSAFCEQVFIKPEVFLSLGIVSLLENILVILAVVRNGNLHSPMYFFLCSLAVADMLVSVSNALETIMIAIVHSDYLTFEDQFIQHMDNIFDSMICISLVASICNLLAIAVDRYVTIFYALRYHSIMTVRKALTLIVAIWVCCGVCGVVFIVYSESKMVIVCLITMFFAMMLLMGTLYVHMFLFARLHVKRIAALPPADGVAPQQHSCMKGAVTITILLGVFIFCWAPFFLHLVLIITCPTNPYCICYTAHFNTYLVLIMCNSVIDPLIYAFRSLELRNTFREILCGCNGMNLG
T2 sequence (P32245 whole entry): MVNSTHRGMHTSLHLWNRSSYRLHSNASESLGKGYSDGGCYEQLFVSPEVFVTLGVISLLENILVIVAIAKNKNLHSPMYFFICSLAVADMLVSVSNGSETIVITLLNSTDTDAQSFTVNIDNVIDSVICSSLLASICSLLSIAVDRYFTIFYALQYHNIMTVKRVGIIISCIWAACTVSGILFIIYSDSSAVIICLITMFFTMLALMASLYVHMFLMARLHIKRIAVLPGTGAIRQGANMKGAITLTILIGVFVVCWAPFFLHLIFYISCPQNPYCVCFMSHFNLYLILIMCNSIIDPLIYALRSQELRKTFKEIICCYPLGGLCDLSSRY
T3 sequence (Q01726 whole entry): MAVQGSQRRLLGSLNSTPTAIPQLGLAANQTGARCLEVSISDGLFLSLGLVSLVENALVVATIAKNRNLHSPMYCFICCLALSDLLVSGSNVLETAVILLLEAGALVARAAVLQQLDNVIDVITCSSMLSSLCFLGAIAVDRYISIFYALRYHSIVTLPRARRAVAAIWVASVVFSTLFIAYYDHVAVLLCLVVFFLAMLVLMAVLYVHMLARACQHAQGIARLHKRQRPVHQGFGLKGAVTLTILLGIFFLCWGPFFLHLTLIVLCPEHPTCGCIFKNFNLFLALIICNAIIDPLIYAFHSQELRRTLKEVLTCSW

A word on the EC50: it is the midpoint of the concentration-response curve. The term half-life denotes the time in which the quantity being followed falls by half. In the case of `CC(=O)N[C@@H](CCCNC(=N)N)C(=O)N[C@H]1CSSC[C@@H](C(N)=O)NC(=O)[C@H](Cc2c[nH]c3ccccc23)NC(=O)[C@H](CCCNC(=N)N)NC(=O)[C@@H](Cc2ccccc2)NC(=O)[C@H](CCCNC(N)=O)NC(=O)[C@@H](C)NC1=O` [CTX-1285, Arg-cyclo(Cys-D-Ala-Cit-D-Phe-Arg-Trp-Cys)], the Emax on human MC3R (setting [2]) was determined as 28%; on human MC4R (% maximal activation), 94%. Also, the “MC4R selectivity vs MC3R” value at human MC3R is on record as 2.9. Further, the half-maximal effective concentration (EC50) on human MC4R (HEK-293 cells stably expressing hMC4R) was determined as 1.7 nM. Further, at human MC1R, the “MC4R selectivity vs MC1R” value amounted to 134. The half-life at 1 µM in the data set “Mouse plasma stability” was above 4 h. The same molecule showed a fraction unbound at 5 min, 0.1 µM in data set [1] of 0.55. In addition, in data set [1] (1.0 uM), the fraction unbound at 5 min, 1 µM was 0.61. Besides, in data set [1] (10.0 uM), the fraction unbound at 5 min, 10 µM is 0.59.

As for `CC(=O)N[C@@H](CCCNC(=N)N)C(=O)N[C@H]1CSSC[C@@H](C(N)=O)NC(=O)[C@H](Cc2c[nH]c3ccccc23)NC(=O)[C@H](CCCNC(=N)N)NC(=O)[C@@H](Cc2ccccc2)NC(=O)[C@H](CCCNC(=N)N)NC(=O)[C@@H](C)NC1=O` [CTX-1211, Arg-cyclo(Cys-D-Ala-Arg-D-Phe-Arg-Trp-Cys)] (Ac-RC[dA]R[dF]RWC-NH2; disulfide 2-8 (inferred)), the Emax on human MC3R (setting [2]) was 91%; at human MC4R (% maximal activation), 96%. Also, on human MC3R, the “MC4R selectivity vs MC3R” value was 5.49. For the same molecule, the “MC4R selectivity vs MC1R” value at human MC1R turned out to be 3.12. In “Mouse plasma stability”, this molecule showed a half-life at 1 µM above 3 h. For the same molecule, the fraction unbound at 5 min, 0.1 µM in data set [1] is 0.49. In data set [1] (1.0 uM), this molecule gave a fraction unbound at 5 min, 1 µM of 0.37. The fraction unbound at 5 min, 10 µM in data set [1] (10.0 uM) was 0.39.

With `CCCC[C@H](NC(=O)[C@H](CCCNC(=N)N)NC(C)=O)C(=O)N[C@H]1CSSC[C@@H](C(N)=O)NC(=O)[C@H](Cc2c[nH]c3ccccc23)NC(=O)[C@H](CCCNC(=N)N)NC(=O)[C@@H](Cc2ccccc2)NC(=O)[C@H](CCCNC(=N)N)NC1=O` [CTX-1228, Arg-Nle-cyclo(Cys-Arg-D-Phe-Arg-Trp-Cys)] (Ac-R[Nle]CR[dF]RWC-NH2; disulfide 3-8 (inferred)), the Emax at human MC3R (setting [2]) is 93%; at human MC4R (% maximal activation), 102%. Moreover, the EC50 at human MC3R (HEK-293 cells stably expressing hMC3R, agonist mode, read-out: MC3R cAMP EC50) amounted to 1.6 nM. Moreover, the “MC4R selectivity vs MC3R” value on human MC3R is recorded as 8.38. Moreover, on human MC1R, the “MC4R selectivity vs MC1R” value came out at 3.16. In addition, the half-life at 1 µM in the data set “Mouse plasma stability” was 0.917 h. In data set [1], this molecule had a fraction unbound at 5 min, 0.1 µM of 0.63. In data set [1] (1.0 uM), the fraction unbound at 5 min, 1 µM is 0.61. In data set [1] (10.0 uM), this molecule gave a fraction unbound at 5 min, 10 µM of 0.61.

Consider `CC(=O)N[C@@H](CCCNC(=N)N)C(=O)N[C@H]1CSSC[C@@H](C(N)=O)NC(=O)[C@H](Cc2ccccc2)NC(=O)[C@H](CCCNC(=N)N)NC(=O)[C@@H](Cc2ccc(Br)cc2)NC(=O)[C@H](CCCNC(=N)N)NC(=O)[C@@H](C)NC1=O` [CTX-1258, Arg-cyclo(Cys-D-Ala-Arg-D-Phe(4-Br)-Arg-Phe-Cys)] (Ac-RC[dA]R[dPhe(4-Br)]RFC-NH2; disulfide 2-8), for which the Emax at human MC3R (setting [3]) came to 36%. Besides, on human MC4R, the “MC4R selectivity vs MC1R” value is given as 0.53 and the “MC4R selectivity vs MC3R” value is recorded as 3.04. At human MC4R (hMC4R stable cell line), the Emax turned out to be 92% and the EC50 turned out to be 2.4 nM. Also, the half-life at 1 µM in “Mouse plasma stability” is above 4 h. In data set [1], the fraction unbound at 5 min, 0.1 µM is 0.53. This molecule came in with a fraction unbound at 5 min, 1 µM in data set [1] (1.0 uM) of 0.5. In addition, in data set [1] (10.0 uM), the fraction unbound at 5 min, 10 µM came out at 0.5.

Take `CC[C@H]1NC(=O)[C@@H](NC(=O)[C@H](CCCNC(=N)N)NC(C)=O)CSSC[C@@H](C(N)=O)NC(=O)[C@@H](Cc2c[nH]c3ccccc23)NC(=O)[C@H](CCCNC(=N)N)NC(=O)[C@@H](Cc2ccc(Br)cc2)NC(=O)[C@H](CCCNC(=N)N)NC1=O` [CTX-1247, Arg-cyclo(Cys-D-Abu-Arg-D-Phe(4-Br)-Arg-D-Trp-Cys)] (Ac-RC[dAbu]R[dPhe(4-Br)]R[dW]C-NH2; disulfide 2-8 (inferred)): on human MC3R (setting [3]), the Emax came out at 13%. Besides, on human MC4R, the “MC4R selectivity vs MC1R” value came out at 0.43 and the “MC4R selectivity vs MC3R” value was determined as 2.05. Further, on human MC4R (hMC4R stable cell line), the Emax came to 75% and the EC50 stood at 3.3 nM. In the data set “Mouse plasma stability”, this molecule yielded a half-life at 1 µM of 3.32 h. Also, the fraction unbound at 5 min, 0.1 µM in data set [1] was 0.51. In data set [1] (1.0 uM), this molecule showed a fraction unbound at 5 min, 1 µM of 0.47. The fraction unbound at 5 min, 10 µM in data set [1] (10.0 uM) is 0.47.

In the case of `CC(=O)N[C@@H](CCCNC(=N)N)C(=O)N[C@H]1CSSC[C@@H](C(N)=O)NC(=O)[C@@H](Cc2c[nH]c3ccccc23)NC(=O)[C@H](CCCNC(=N)N)NC(=O)[C@@H](Cc2ccccc2)NC(=O)[C@H](CCCNC(=N)N)NC(=O)[C@H](C)NC1=O` [CTX-1268, Arg-cyclo(Cys-Ala-Arg-D-Phe-Arg-D-Trp-Cys)] (Ac-RCAR[dF]R[dW]C-NH2; disulfide 2-8), the Emax on human MC3R (setting [2]) turned out to be 44%; at human MC4R (% maximal activation), 96%. Besides, the “MC4R selectivity vs MC3R” value on human MC3R was 30. Besides, the “MC4R selectivity vs MC1R” value on human MC1R came to 6.59. Besides, the half-life in “Mouse plasma stability” was determined as 1.75 h. This molecule had a fraction unbound at 0.1 uM in data set [1] of 0.48. The fraction unbound was 0.42 in data set [1] (setting [4]) and 0.38 in data set [1] (setting [5]).

Consider `CC(=O)N[C@@H](CCCNC(=N)N)C(=O)N[C@H]1CSSC[C@@H](C(N)=O)NC(=O)[C@@H](Cc2c[nH]c3ccccc23)NC(=O)[C@H](CCCNC(=N)N)NC(=O)[C@@H](Cc2ccc(F)cc2)NC(=O)[C@H](CCCNC(=N)N)NC(=O)[C@@H](C)NC1=O` [CTX-1236, Arg-cyclo(Cys-D-Ala-Arg-D-Phe(4-F)-Arg-D-Trp-Cys)] (Ac-RC[dA]R[dPhe(4-F)]R[dW]C-NH2; disulfide 2-8), for which the Emax at human MC3R (setting [3]) was 66%. On human MC4R, the “MC4R selectivity vs MC1R” value is on record as 2.01 and the “MC4R selectivity vs MC3R” value is on record as 1.36. On human MC4R (hMC4R stable cell line), the Emax was found to be 97% and the 50% effective concentration (EC50) is 1.9 nM. In addition, the half-life in the data set “Mouse plasma stability” came out at 3.78 h. In data set [1], the fraction unbound at 0.1 uM is 0.55. Also, in data set [1] (setting [4]), the fraction unbound is 0.51. Moreover, the fraction unbound in data set [1] (setting [5]) was 0.49.
